# From the Kinase Knowledgebase extract (Sharma et al. 2016)
# Values joined by “and” are separate entries in the source; they are usually repeats but may differ in a detail not shown here. Equal values may be shown once.
# Experiments:
# MAPK14 (human) [1] = biological target: MAPK14 (human) (UniProt Q16539); assay: Inhibition of LPS Stimulated TNF Production by U937 Cells
# MAPK14 (human) [2] = biological target: MAPK14 (human) (UniProt Q16539); assay: Inhibition of MAPK14 Kinase Activity by PHAS-I Assay; settings: for inhibition: concentration not given here
# MAPK14 (human), sequence (Q16539 whole entry, looked up): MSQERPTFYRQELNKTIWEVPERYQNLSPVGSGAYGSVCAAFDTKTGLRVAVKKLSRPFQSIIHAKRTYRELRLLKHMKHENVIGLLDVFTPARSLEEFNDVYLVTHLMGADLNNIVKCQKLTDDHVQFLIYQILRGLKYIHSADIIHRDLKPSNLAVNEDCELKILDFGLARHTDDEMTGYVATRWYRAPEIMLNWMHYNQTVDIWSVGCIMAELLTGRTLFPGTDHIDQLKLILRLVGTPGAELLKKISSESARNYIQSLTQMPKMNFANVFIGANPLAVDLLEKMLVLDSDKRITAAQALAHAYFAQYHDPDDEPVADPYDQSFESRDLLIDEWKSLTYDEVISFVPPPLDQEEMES
inhibition (MAPK14 (human) [1]; concentration not given here) [%],inhibition (MAPK14 (human) [2]) [%],IC50 (MAPK14 (human) [2]) [nM],IC50 (MAPK14 (human) [1]),inhibition (MAPK14 (human) [1]) [µM],Structure (SMILES)
14,4,–,–,–,COc1cc(OC)c(NC(=O)NCc2[nH]nc(-c3ccc(F)cc3)c2-c2ccncc2)cc1O
26,0,–,–,–,O=C(NCCc1[nH]nc(-c2ccc(F)cc2)c1-c1ccncc1)c1cccc(Br)c1
8,–,3280,–,–,CNC(=O)CC[C@H](NC(=O)c1ccc(I)cc1)c1[nH]nc(-c2ccc(F)cc2)c1-c1ccncc1
–,69,–,> 1000 nM,–,CCC(=O)C(=O)CCCCCNC(=O)NCCc1[nH]nc(-c2ccc(F)cc2)c1-c1ccncc1
–,72,–,1830 nM,–,CC(C)=CC(=O)NCCCc1[nH]nc(-c2ccc(F)cc2)c1-c1ccncc1
36,87,–,–,–,O=S(=O)(NCCc1[nH]nc(-c2ccc(F)cc2)c1-c1ccncc1)c1ccccc1F
22,37,–,–,–,COCCN(Cc1cccc(OC)c1)C(=O)Cn1nc(-c2ccc(F)cc2)c(-c2ccncc2)c1C
–,–,550,> 1000 nM,–,O=C(NCc1[nH]nc(-c2ccc(F)cc2)c1-c1ccncc1)N1CCCC1
10,39,–,–,–,COc1ccc2[nH]c3c(c2c1)CCN(C(=O)Cn1nc(-c2ccc(F)cc2)c(-c2ccncc2)c1C)C3
62,78,–,–,–,O=S(=O)(NCCCc1[nH]nc(-c2ccc(F)cc2)c1-c1ccncc1)c1ccc(F)cc1
18,58,–,–,–,Cc1ccc(S(=O)(=O)NCCc2[nH]nc(-c3ccc(F)cc3)c2-c2ccncc2)cc1
36,58,–,–,–,COC(=O)[C@H](CCSC)NC(=O)Cn1nc(-c2ccc(F)cc2)c(-c2ccncc2)c1C
23,58,–,–,–,O=C(NCCc1[nH]nc(-c2ccc(F)cc2)c1-c1ccncc1)c1cccnc1
–,32,–,> 10000 nM,–,CCN1CCC(N(CC)C(=O)Cn2nc(-c3ccc(F)cc3)c(-c3ccncc3)c2C)C1 (stereo unspecified)
23,54,–,–,–,COc1cccc(C(=O)NCCc2[nH]nc(-c3ccc(F)cc3)c2-c2ccncc2)c1
18,69,–,–,–,COc1ccc(C2OCCN2C(=O)Cn2nc(-c3ccc(F)cc3)c(-c3ccncc3)c2C)cc1OC (stereo unspecified)
69,–,250,–,–,C[C@H](NS(=O)(=O)c1ccccc1C#N)c1[nH]nc(-c2ccc(F)cc2)c1-c1ccncc1
73,57,–,–,–,CC(=O)O[C@@H](C)C(=O)NCCc1[nH]nc(-c2ccc(F)cc2)c1-c1ccncc1
29,51,–,–,–,O=C(NCCc1[nH]nc(-c2ccc(F)cc2)c1-c1ccncc1)Nc1ccc(Br)cc1
5,50,–,–,–,CC(C)c1ccc(NC(=O)NCCc2[nH]nc(-c3ccc(F)cc3)c2-c2ccncc2)cc1
37,85,–,–,–,C[C@H](NC(=O)NCCCc1[nH]nc(-c2ccc(F)cc2)c1-c1ccncc1)c1ccccc1
51,–,110,–,–,CN(C)C(=O)NCc1[nH]nc(-c2ccc(F)cc2)c1-c1ccncc1
–,42,–,3630 nM,–,O=S(=O)(NCc1[nH]nc(-c2ccc(F)cc2)c1-c1ccncc1)c1ccc(OC(F)(F)F)cc1
54,69,–,–,–,CCOC(=O)C(CCSC)NC(=O)NCCc1[nH]nc(-c2ccc(F)cc2)c1-c1ccncc1 (stereo unspecified)
61,80,–,–,–,O=C(NCCCc1[nH]nc(-c2ccc(F)cc2)c1-c1ccncc1)Nc1cccc(F)c1

inhibition (MAPK14 (human) [1]; concentration not given here) [%],inhibition (MAPK14 (human) [2]) [%],IC50 (MAPK14 (human) [2]) [nM],IC50 (MAPK14 (human) [1]),inhibition (MAPK14 (human) [1]) [µM],Structure (SMILES)
–,45,–,> 10000 nM,–,CCOC(=O)CC[C@H](NC(=O)Cn1nc(-c2ccc(F)cc2)c(-c2ccncc2)c1C)C(=O)OCC
12,79,–,–,–,C[C@H](NC(=O)NCCc1[nH]nc(-c2ccc(F)cc2)c1-c1ccncc1)c1ccccc1
13,26,–,–,–,Cc1c(-c2ccncc2)c(-c2ccc(F)cc2)nn1CC(=O)N1CCCCC1CCN1CCCCC1 (stereo unspecified)
–,89,–,760 nM,–,O=C(NCCc1[nH]nc(-c2ccc(F)cc2)c1-c1ccncc1)[C@@H]1CCCN1
2,47,–,–,–,O=[N+]([O-])c1ccc(S(=O)(=O)NCc2[nH]nc(-c3ccc(F)cc3)c2-c2ccncc2)cc1
31,40,–,–,–,Cc1c(-c2ccncc2)c(-c2ccc(F)cc2)nn1CC(=O)N(C)CC(=O)N(C)C
34,77,–,–,–,CC(C)S(=O)(=O)NCCc1[nH]nc(-c2ccc(F)cc2)c1-c1ccncc1
4,48,–,–,–,O=C(NCCc1[nH]nc(-c2ccc(F)cc2)c1-c1ccncc1)Nc1ccc(OC(F)(F)F)cc1
58,96,–,–,–,O=S(=O)(Cc1ccccc1)NCCc1[nH]nc(-c2ccc(F)cc2)c1-c1ccncc1
45,81,–,–,–,Cc1ccc([C@@H](C)NC(=O)Cn2nc(-c3ccc(F)cc3)c(-c3ccncc3)c2C)cc1
38,–,< 100,–,–,CC1(C)[C@H]2CC[C@@]1(CS(=O)(=O)NCCCc1[nH]nc(-c3ccc(F)cc3)c1-c1ccncc1)C(=O)C2
–,–,700,96.7 nM and 130 nM,–,Cn1cc(-c2ccncc2)c(-c2ccc(F)cc2)n1
64,–,< 100,–,–,COc1ccc(Cl)cc1S(=O)(=O)NCCCc1[nH]nc(-c2ccc(F)cc2)c1-c1ccncc1
24,–,660,–,–,C[C@@H](NC(=O)c1ccc(F)cc1)c1[nH]nc(-c2ccc(F)cc2)c1-c1ccncc1
19,79,–,–,–,Cc1c(-c2ccncc2)c(-c2ccc(F)cc2)nn1CC(=O)[C@H]1CCCN1C(=O)OCc1ccccc1
37,47,–,–,–,CSc1cccc(NC(=O)NCCc2[nH]nc(-c3ccc(F)cc3)c2-c2ccncc2)c1
20,82,–,–,–,O=C(NCCc1[nH]nc(-c2ccc(F)cc2)c1-c1ccncc1)Nc1ccc(C(F)(F)F)cc1
26,60,–,–,–,CCOC(=O)C(CC(C)C)NC(=O)C(=O)NCCc1[nH]nc(-c2ccc(F)cc2)c1-c1ccncc1 (stereo unspecified)
36,83,–,–,–,CCOC(=O)COc1cccc(NC(=O)Cn2nc(-c3ccc(F)cc3)c(-c3ccncc3)c2C)c1
39,61,–,–,–,O=C(NCCc1[nH]nc(-c2ccc(F)cc2)c1-c1ccncc1)Nc1cc(Cl)ccc1Cl
1,44,–,–,–,COC(=O)C(C)NC(=O)Cn1nc(-c2ccc(F)cc2)c(-c2ccncc2)c1C (stereo unspecified)
5,54,–,–,–,CCOC(=O)CCOC(=O)NCc1[nH]nc(-c2ccc(F)cc2)c1-c1ccncc1
32,82,–,–,–,COc1cc(OC)c(NC(=O)NCCc2[nH]nc(-c3ccc(F)cc3)c2-c2ccncc2)cc1Cl
59,–,580,–,–,C[C@@H](NS(=O)(=O)c1ccccc1C(=O)O)c1[nH]nc(-c2ccc(F)cc2)c1-c1ccncc1
–,84,–,> 10000 nM,–,COC(=O)[C@H](CSCc1ccccc1)NC(=O)Cn1nc(-c2ccc(F)cc2)c(-c2ccncc2)c1C

inhibition (MAPK14 (human) [1]; concentration not given here) [%],inhibition (MAPK14 (human) [2]) [%],IC50 (MAPK14 (human) [2]) [nM],IC50 (MAPK14 (human) [1]),inhibition (MAPK14 (human) [1]) [µM],Structure (SMILES)
66,72,–,–,–,O=C(NCCc1[nH]nc(-c2ccc(F)cc2)c1-c1ccncc1)Nc1cccc(F)c1
34,69,–,–,–,CCOC(=O)CCNC(=O)NCCc1[nH]nc(-c2ccc(F)cc2)c1-c1ccncc1
25,63,–,–,–,CCOC(=O)C(C)NC(=O)NCCc1[nH]nc(-c2ccc(F)cc2)c1-c1ccncc1 (stereo unspecified)
43,55,–,–,–,COCC(=O)NCCc1[nH]nc(-c2ccc(F)cc2)c1-c1ccncc1
–,40,–,–,59,CCN(CC)C1CCN(C(=O)Cn2nc(-c3ccc(F)cc3)c(-c3ccncc3)c2C)C1 (stereo unspecified)
60,83,–,–,–,CC(Oc1ccccc1)C(=O)NCCCc1[nH]nc(-c2ccc(F)cc2)c1-c1ccncc1 (stereo unspecified)
–,70,–,1160 nM,–,COc1ccc(CC(=O)NCCCc2[nH]nc(-c3ccc(F)cc3)c2-c2ccncc2)cc1
7,85,–,–,–,O=S(=O)(NCCc1[nH]nc(-c2ccc(F)cc2)c1-c1ccncc1)c1ccc(F)cc1
35,48,–,–,–,CC[C@H](NC(=O)Cn1nc(-c2ccc(F)cc2)c(-c2ccncc2)c1C)c1ccccc1
–,50,–,> 10000 nM,–,Cc1c(-c2ccncc2)c(-c2ccc(F)cc2)nn1CC(=O)N(C)CCCC1c2ccccc2CCc2ccccc21
23,56,–,–,–,COc1cc(NC(=O)NCCc2[nH]nc(-c3ccc(F)cc3)c2-c2ccncc2)cc(OC)c1OC
38,76,–,–,–,CC[C@H](C)NC(=O)Cn1nc(-c2ccc(F)cc2)c(-c2ccncc2)c1C
2,82,–,–,–,CCOC(=O)c1cccc(NC(=O)NCCc2[nH]nc(-c3ccc(F)cc3)c2-c2ccncc2)c1
–,85,–,> 10000 nM,–,Cc1ccc(NC(=O)Cn2nc(-c3ccc(F)cc3)c(-c3ccncc3)c2C)cc1
–,74,–,680 nM,–,CC(=O)OCC(=O)NCCCc1[nH]nc(-c2ccc(F)cc2)c1-c1ccncc1
7,89,–,–,–,Cc1cccc(OC(=O)c2ccc(NC(=O)Cn3nc(-c4ccc(F)cc4)c(-c4ccncc4)c3C)cc2)c1
35,82,–,–,–,CCCS(=O)(=O)NCCc1[nH]nc(-c2ccc(F)cc2)c1-c1ccncc1
45,–,62,–,–,C[C@H](NC(=O)c1cc(F)cc(F)c1)c1[nH]nc(-c2ccc(F)cc2)c1-c1ccncc1
60,76,–,–,–,NC(=O)NCCc1[nH]nc(-c2ccc(F)cc2)c1-c1ccncc1
40,39,–,–,–,COc1ccc(OC)c(NC(=O)NCc2[nH]nc(-c3ccc(F)cc3)c2-c2ccncc2)c1
9,–,19,–,–,O=C(NCCCc1[nH]nc(-c2ccc(F)cc2)c1-c1ccncc1)NCCc1ccc(F)cc1
31,76,–,–,–,COC(=O)c1ccccc1NC(=O)NCCc1[nH]nc(-c2ccc(F)cc2)c1-c1ccncc1
82,–,470,–,–,Cc1cccc(S(=O)(=O)NCc2[nH]nc(-c3ccc(F)cc3)c2-c2ccncc2)c1
